# Assay results taken from patent US8895805B2, “Method for modifying insect resistance of plants by utilizing RNAi technique” (Shanghai Institutes for Biological Sciences, Chinese …, priority 2006, dated 2014).
# System: GST1 gene
# Assay: GST1 gene expression in the mesenteron after artificial diet containing gossypol
# Type: in vivo, cotton bollworm
# Conditions: 5-day old larvae, 1 day, artificial diet with 1 mg/g gossypol (FIG. 7A)
# Protocol: FIG. 7A show the change in GST 1 gene expression in the mesenteron of 5-day old cotton bollworm with the same growth vigor 1 day after eating artificial diet containing 1 mg/g gossypol. Lane 1 and 2 are cotton bollworm eating artificial diet with or without 1 mg/g gossypol respectively.
structure (smiles),measurement,value
Cc1cc2c(C(C)C)c(O)c(O)c(C=O)c2c(O)c1-c1c(C)cc2c(C(C)C)c(O)c(O)c(C=O)c2c1O [gossypol],GST1 gene expression in the mesenteron,no significant effect
